{"source": "patent EP3431088A1", "about": "“MNTBAP FOR USE IN INDUCING A TRANSIENT IMMUNE TOLERANCE” (priority 2017, dated 2019)", "key": {"[1]": {"tested_on": "injected TA muscle", "test": "IM rAAV gene transfer: histology and RT-PCR of injected TA muscle", "assay_type": "in vivo, C57BL/6 mice", "conditions": "fifteen days post IM rAAV1 vector injection"}, "[2]": {"tested_on": "CD4", "test": "Time-lapse microscopy of CD4 cell surface fluorescence", "assay_type": "cell-based, murine", "conditions": "time lapse for 4 hours, 400 µM, vs control", "method": "Murine splenic CD4^+ T cells are first stained with CFSE, according to the manufacturer's recommendations (Invitrogen), and then with rat anti-mouse CD4-APC (RM4-5, BD Biosciences) mAb. After staining, cells are incubated in Ibidi's µ-chambers culture dish (Ibidi, Nanterre, France) in the thermo-regulated chamber of the Zeiss Axiovert 100 M confocal microscope. A time lapse acquisition is performed with a delay of 120 sec between frames. Each frame is illuminated using a 488 nm and 633 nm lasers, and fluorescence collected using 505-580 nm and 644-719 nm filters. The magnification is 40x/1.3 oil and images are saved as 8bits. The image stack is splitted using ImageJ-1.43, and images analyzed using CellProfiler 2.0.10415. The cell segmentation is performed on the CFSE fluorescence, and the fluorescence of the CD4 staining analyzed using the R software. Intensity is normalized to the maximum fluorescence measured at T0 for each condition."}, "[3]": {"tested_on": "clathrin and CD4", "test": "Immunofluorescence confocal microscopy, anti-CD4 and anti-clathrin", "assay_type": "cell-based", "conditions": "murine splenic enriched CD4+ T cells, 2 hours, 400 µM, vs non-treated", "method": "After culture in complete medium with or without MnTBAP at 400 µM, murine splenic CD4^+ T cells are collected and subjected to immunostaining as previously described (T. M. Neildez-Nguyen et al., Immunology 144, 431. 2015). Briefly, after adhesion on poly-L-lysine-coated slides (Thermo Fisher Scientific), cells are fixed in 4% paraformaldehyde for 5 minutes at 4°C and for 10 minutes at room temperature, and permeabilized with methanol for 6 minutes at -20°C. Cells are stained overnight with rat anti-mouse CD4-APC (BD Biosciences) and rabbit anti-mouse clathrin (Abcam, Paris, France) antibodies, and then with the goat anti-rabbit Alexa Fluor 488 secondary antibody (Invitrogen, Carlsbad, USA) for 30 minutes at room temperature. Negative controls are performed with the corresponding isotype controls of primary antibodies used (BD Biosciences and Abcam). The slides are mounted with Fluoromount/Dapi (SouthernBiotech, Montrouge, France). Images are acquired with confocal-laser-scanning microscope (Leica Microsystems, Nanterre, France)."}, "[4]": {"tested_on": "specific T-cell immune responses against OVA peptides", "test": "OVA peptides subcutaneous immunization, IFN-γ ELISPOT on spleen cells", "assay_type": "in vivo, C57BL/6 mice", "conditions": "80 mg/kg IP daily 5 days, vs PBS + OVA / IFA", "method": "MnTBAP (Calbiochem, San Diego, USA or Enzo Life Sciences, Farmingdale, USA) is dissolved in 75 mM NaOH to constitute a 20 mM stock solution. MnTBAP is dissolved in the complete medium, used for in vitro treatment, containing RPMI-1640 supplemented with 10% heat-inactivated fetal calf serum, 100 U/ml penicillin/streptomycin, 2 mM glutamax and 50 µM β-mercaptoethanol β-ME). Hypertonic medium, used to block clathrin dependent endocytosis, is complete medium supplemented with 0.45 M sucrose. For in vivo treatment, the stock solution is diluted with PBS and administered at 80 mg/kg intraperitoneally daily during five days. Control animals are injected with equivalent volume of PBS.\nA mixture of chicken egg albumin (OVA) peptides is administrated subcutaneously in mice anesthetized by intraperitoneal injection of xylazine (10 mg/kg) and ketamine (100 mg/kg). OVA257-264 (SEQ ID NO: 3; SIINFEKL) (InvivoGen, San Diego, USA) is a class I (Kb)-restricted peptide epitope of OVA presented by the class I major histocompatibility complex molecule (CMH) H-2Kb. OVA323-339 (SEQ ID NO: 4; ISQAVHAAHAEINEAGR) (AnaSpec, San Jose, USA) is an H-2b-restricted OVA class II epitope. 100 µg of each peptide complexed with the same volume of incomplete Freund's adjuvant (IFA) (Sigma-Aldrich) are administrated. Controls are injected with PBS-IFA complexes. OVA peptides- and PBS-IFA complexes are injected two hours or 21 days post first intraperitoneal injection of MnTBAP (or PBS). Eight days post OVA peptides injection, mice are sacrificed and spleens harvested to analyze OVA-specific T cell response.\nSpleens are harvested to analyze the cellular immune anti-transgene response by T-cell cytokine response assay. Multiscreen-HA Assay System 96-well Filtration plates (Merck) are coated overnight with 2.5 µg/ml of anti-mouse IFN-γ purified mAb (eBiosciences) at 4°C, washed, and then blocked with RPMI 1640 medium (Life Technologies, Saint-Aubin, France) supplemented with 10% heat inactivated fetal bovine serum (FCS), 100U/ml penicillin/streptomycin (Thermo Fisher Scientific) and 2mM GlutaMAXTM-I (Life technologies) for 2 hours at 37°C. Plates are washed three times with RPMI 1640 medium without FCS. Splenocytes are added in duplicate to the IFN-γ-coated well (1 or 0.5 x 10^6 cells/well) and cultured in presence of Dby or Uty peptide (Genepep, Montpellier, France) at 2 µM or in presence of OVA peptides at 10 µg/ml. As a positive control, cells are stimulated with Concanavalin A (Sigma-Aldrich) at 1 µg/ml in each test. […] Spots are counted using an AID reader (Ceipheid Benelux, Louven, Belgium). Spot forming units (SFU) per million cells for each mouse are calculated as the average value of duplicate measures after subtraction of background values obtained with in vitro unstimulated splenocytes."}, "[5]": {"conditions": "injected TA, vs non-treated control groups"}, "[6]": {"conditions": "OVA/IFA immunization 21 days after first injection"}, "[7]": {"conditions": "OVA/IFA immunization two hours after first injection"}}}
{"smiles": "O=C(O)c1ccc(-c2c3nc(c(-c4ccc(C(=O)O)cc4)c4ccc([n-]4)c(-c4ccc(C(=O)O)cc4)c4nc(c(-c5ccc(C(=O)O)cc5)c5ccc2[n-]5)C=C4)C=C3)cc1.[Mn+3]", "note": "[MnTBAP, manganese [III] tetrakis (4-benzoic acid) porphyrin]", "values": [{"measurement": "muscle integrity", "setting": "[1]; 80 mg/kg IP daily 5 days", "result": "normal muscle integrity"}, {"measurement": "CD8a mRNA expression", "setting": "[1]; [5]", "result": "decrease of CD8a mRNA expression"}, {"measurement": "SGCA transgene expression", "setting": "[1]; [5]", "result": "increase of the SGCA transgene expression"}, {"measurement": "CD4 cell surface fluorescence over time", "setting": "[2]", "result": "CD4 declines on CD4^+ T cells"}, {"measurement": "colocalization of clathrin and CD4", "setting": "[3]", "result": "colocalization of clathrin and CD4 is observed"}, {"measurement": "IFN-γ production by OVA-specific CD4^+ T cells", "setting": "[4]; [6]", "result": "produce low levels of IFN-γ with no significant differences"}, {"measurement": "IFN-γ production by OVA-specific CD8^+ T cells", "setting": "[4]; [6]", "result": "produce IFN-γ with no significant differences"}, {"measurement": "IFN-γ production by OVA-specific CD4^+ T cells", "setting": "[4]; [7]", "result": "not able to produce IFN-γ"}, {"measurement": "IFN-γ production by OVA-specific CD8^+ T cells", "setting": "[4]; [7]", "result": "not able to produce IFN-γ"}]}
